Legend:
[1] = Metabolic stability in human liver microsomes assessed as turnover at 5 uM after 30 mins in absence of NADPH; type: ADME, Microsome; settings: read-out: Activity
[2] = target: T1, Adenosine receptor A3 (Homo sapiens) (UniProt P0DMS8); assay: Inhibition of [3H]NECA binding to human adenosine A3 receptor expressed in human HeLa cells at 1 uM after 3 hrs by filtration binding assay; type: cell-based
T1 sequence (whole entry): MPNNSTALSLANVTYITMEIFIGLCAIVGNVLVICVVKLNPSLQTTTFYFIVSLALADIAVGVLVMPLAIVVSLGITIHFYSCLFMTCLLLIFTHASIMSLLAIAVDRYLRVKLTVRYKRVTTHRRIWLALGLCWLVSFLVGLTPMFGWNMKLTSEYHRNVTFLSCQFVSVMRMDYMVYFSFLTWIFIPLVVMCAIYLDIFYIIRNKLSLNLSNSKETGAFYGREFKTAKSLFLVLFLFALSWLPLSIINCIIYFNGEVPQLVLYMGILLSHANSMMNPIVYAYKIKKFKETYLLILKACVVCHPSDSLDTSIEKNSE

[3] = Metabolic stability in rat liver microsomes assessed as turnover at 5 uM after 30 mins in absence of NADPH; type: ADME, Microsome; settings: read-out: Activity
[4] = target: T2, Adenosine receptor A1 (Homo sapiens, UniProt P30542); assay: biochemical
T2 sequence (P30542 whole entry): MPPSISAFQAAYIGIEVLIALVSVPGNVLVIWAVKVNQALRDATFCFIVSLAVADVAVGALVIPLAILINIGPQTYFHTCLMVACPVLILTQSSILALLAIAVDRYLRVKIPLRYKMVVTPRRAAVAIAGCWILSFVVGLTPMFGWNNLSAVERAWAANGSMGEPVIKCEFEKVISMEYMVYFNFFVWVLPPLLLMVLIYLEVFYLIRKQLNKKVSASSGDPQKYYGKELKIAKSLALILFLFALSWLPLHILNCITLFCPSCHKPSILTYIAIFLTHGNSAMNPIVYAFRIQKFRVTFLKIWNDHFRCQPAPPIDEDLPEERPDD
Description: Displacement of [3H]DPCPX from human adenosine A1 receptor expressed in CHO cells after 90 mins by filtration binding assay

[5] = target: T3, Adenosine receptor A2b (Homo sapiens, UniProt P29275); assay: biochemical
T3 sequence (P29275 whole entry): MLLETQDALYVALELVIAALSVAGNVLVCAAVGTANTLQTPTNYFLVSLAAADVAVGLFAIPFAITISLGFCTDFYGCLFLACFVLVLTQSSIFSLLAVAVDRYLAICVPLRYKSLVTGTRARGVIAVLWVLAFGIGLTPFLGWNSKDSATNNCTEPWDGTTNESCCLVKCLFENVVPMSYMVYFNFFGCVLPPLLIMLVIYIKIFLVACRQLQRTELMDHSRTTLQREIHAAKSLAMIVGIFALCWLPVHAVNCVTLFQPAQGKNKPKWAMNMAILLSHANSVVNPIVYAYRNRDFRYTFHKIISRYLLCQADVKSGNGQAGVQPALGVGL
Description: Displacement of [3H]DPCPX from human adenosine A2B receptor expressed in HEK293 cells after 60 mins by filtration binding assay

[6] = target: T4, Adenosine receptor A2a (Homo sapiens, UniProt P29274); assay: Displacement of [3H]ZM241385 from human adenosine A2A receptor expressed in human HeLa cells after 1 hr by scintillation proximity assay; type: cell-based
[7] = target: T5, Adenosine receptor A3 (Homo sapiens, UniProt P0DMS8); assay: Displacement of [3H]NECA from human adenosine A3 receptor expressed in human HeLa cells after 3 hrs by filtration binding assay; type: cell-based
T5 sequence (P0DMS8 whole entry): T1 sequence (whole entry)

[8] = target: T4, Adenosine receptor A2a; assay: Inhibition of [3H]ZM241385 binding to human adenosine A2A receptor expressed in human HeLa cells at 1 uM after 1 hr by scintillation proximity assay; type: cell-based
[9] = target: T6, Adenosine receptor A1 (Homo sapiens) (UniProt P30542); assay: Inhibition of [3H]DPCPX binding to human adenosine A1 receptor expressed in CHO cells at 1 uM after 90 mins by filtration binding assay; type: cell-based
T6 sequence (whole entry): T2 sequence (P30542 whole entry)

[10] = target: T7, Adenosine receptor A2b (Homo sapiens) (UniProt P29275); assay: Inhibition of [3H]DPCPX binding to human adenosine A2B receptor expressed in HEK293 cells at 1 uM after 60 mins by filtration binding assay; type: cell-based
T7 sequence (whole entry): T3 sequence (P29275 whole entry)

[11] = Oral bioavailability in rat at 10 mg/kg; type: ADME, organism-based; settings: in vivo
[12] = Tmax in rat at 10 mg/kg, po; type: ADME, organism-based; set-up: dose 10 mg/kg, route oral; settings: in vivo
[13] = Cmax in rat at 1 mg/kg, iv; type: ADME, organism-based; set-up: dose 1 mg/kg, route intravenous; settings: in vivo
[14] = Volume of distribution at steady state in rat at 1 mg/kg, iv; type: ADME, organism-based; set-up: dose 1 mg/kg, route intravenous; settings: in vivo, read-out: Vdss
[15] = Terminal half life in rat at 1 mg/kg, iv; type: ADME, organism-based; set-up: dose 1 mg/kg, route intravenous; settings: in vivo, read-out: beta t1/2 (converted)
[16] = AUC (0 to infinity) in rat at 1 mg/kg, iv; type: ADME, organism-based; set-up: time infinity, dose 1 mg/kg, route intravenous; settings: plasma
[17] = Clearance in rat at 1 mg/kg, iv; type: ADME, organism-based; set-up: dose 1 mg/kg, route intravenous; settings: in vivo
[18] = Metabolic stability in human liver microsomes assessed as turnover at 5 uM after 30 mins in presence of NADPH; type: ADME, Microsome; settings: read-out: Activity
[19] = Metabolic stability in rat liver microsomes assessed as turnover at 5 uM after 30 mins in presence of NADPH; type: ADME, Microsome; settings: read-out: Activity

T4 sequence (P29274 whole entry): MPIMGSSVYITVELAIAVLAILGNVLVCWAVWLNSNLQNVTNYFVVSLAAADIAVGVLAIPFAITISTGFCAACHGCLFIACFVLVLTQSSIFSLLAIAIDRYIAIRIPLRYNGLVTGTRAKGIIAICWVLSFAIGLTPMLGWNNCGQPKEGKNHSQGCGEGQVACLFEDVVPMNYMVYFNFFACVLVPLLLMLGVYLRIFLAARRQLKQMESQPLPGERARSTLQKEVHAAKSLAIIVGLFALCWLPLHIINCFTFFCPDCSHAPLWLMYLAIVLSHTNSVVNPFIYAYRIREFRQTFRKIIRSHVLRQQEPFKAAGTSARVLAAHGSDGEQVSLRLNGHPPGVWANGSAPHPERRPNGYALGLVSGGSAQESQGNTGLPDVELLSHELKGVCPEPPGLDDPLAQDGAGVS

inhibition [2] [%] | Ki [4] [nM] | Ki [5] [nM] | Ki [6] [nM] | Ki [7] [nM] | inhibition [9] [%] | SMILES | further results
11 | 374 | 1 | 150 | – | – | O=C(Nc1ccc(-c2ccncc2F)c(-c2ccco2)n1)C1CC1 | metabolised at 0.5 h, 5 µM [1]: 77%; metabolised at 0.5 h, 5 µM [3]: 99%
– | 82 | 1 | 30 | 1340 | – | O=C(Nc1ccc(-c2ccncc2)c(-c2ccco2)n1)C1CC1 | –
28 | – | 47 | – | – | 7 | CC(=O)Nc1ccc(-c2ccncn2)c(-c2ccco2)n1 | inhibition [8]: 20%
1 | – | 202 | – | – | 3 | O=C(Nc1ccc(-c2ccncc2)c(-c2cc[nH]n2)n1)C1CC1 | inhibition [8]: 4%
2 | – | 380 | – | – | 2 | CC(=O)Nc1ncc(-c2ccncn2)c(-c2ccco2)n1 | inhibition [8]: 10%
11 | 914 | 42 | 302 | – | – | O=C(Nc1ccc(-c2ccncc2)c(-c2nccs2)n1)C1CC1 | –
5 | 635 | 30 | 635 | – | – | O=C(Nc1ccc(-c2ccncc2)c(-c2cnco2)n1)C1CC1 | –
27 | 35 | 4 | 39 | – | – | O=C(Nc1ccc(-c2ccncc2)c(-c2ccc(F)cc2)n1)C1CC1 | –
6 | 338 | 14 | 163 | – | – | O=C(Nc1ccc(-c2ccncc2)c(-c2ccncc2)n1)C1CC1 | –
7 | – | – | – | – | 8 | O=C(Nc1ccc(-c2ccncc2)cn1)C1CC1 | inhibition [8]: 2%; inhibition [10]: 29%
– | 58 | 30 | 286 | 471 | – | CC(=O)Nc1ccc(-c2ccncc2)c(-c2cccc(F)c2)n1 | –
14 | – | 380 | – | – | 5 | O=C(Nc1ccc(-c2ccncc2)c(Cl)n1)C1CC1 | inhibition [8]: 7%
– | 931 | 4 | 239 | 3750 | – | O=C(Nc1ccc(-c2ccncn2)c(-c2ccco2)n1)C1CC1 | bioavailability [11]: 39%; Tmax [12]: 18 min; metabolised at 0.5 h, 5 µM [3]: 27%; Cmax [13]: 538 ng/mL; Vd [14]: 1.6 L/kg; half-life [15]: 30 min; AUC(0-inf) [16]: 267 ng·h/mL; clearance [17]: 63.3 mL/min/kg
12 | – | 134 | 1370 | – | 1 | O=C(Nc1ccc(-c2ccncc2)c(-c2cocn2)n1)C1CC1 | –
10 | – | 33 | 1470 | – | 21 | O=C(Nc1ccc(-c2ccncc2)c(-c2cccnc2)n1)C1CC1 | –
– | 14 | 2 | 57 | 715 | – | O=C(Nc1ccc(-c2ccncc2)c(-c2cccc(F)c2)n1)C1CC1 | –
3 | – | 208 | – | – | 3 | O=C(Nc1ccc(-c2ccncc2)c(-c2ccncn2)n1)C1CC1 | inhibition [8]: 9%
– | 2820 | – | – | 1040 | – | c1cncc(Nc2ncc(-c3ccncn3)c(-c3ccco3)n2)c1 | –
– | 320 | 78 | 813 | 4850 | – | O=C(Nc1ccc(-c2ccncc2)c(-c2cncs2)n1)C1CC1 | –
– | 358 | 7 | 209 | 333 | – | CC(=O)Nc1ccc(-c2ccncc2)c(-c2ccco2)n1 | –
2 | – | 3670 | – | – | 6 | CC(=O)c1nc(NC(=O)C2CC2)ccc1-c1ccncc1 | inhibition [8]: 2%
– | 250 | 5 | 147 | 1870 | – | O=C(Nc1ccc(-c2ccncc2Cl)c(-c2ccco2)n1)C1CC1 | –
2 | – | 72 | 1440 | – | 22 | O=C(Nc1ccc(-c2ccncc2)c(-n2cccn2)n1)C1CC1 | –
2 | 940 | 47 | 862 | – | – | O=C(Nc1ccc(-c2ccncc2)c(-c2ccccn2)n1)C1CC1 | metabolised at 0.5 h, 5 µM [3]: 12%; Cmax [13]: 822 ng/mL; Vd [14]: 1 L/kg; half-life [15]: 30 min; metabolised at 0.5 h, 5 µM [18]: 0%; AUC(0-inf) [16]: 485 ng·h/mL; clearance [17]: 35 mL/min/kg
– | 123 | 2 | 61 | 817 | – | O=C(Nc1ccc(-c2ccncc2)c(-c2ccccc2F)n1)C1CC1 | metabolised at 0.5 h, 5 µM [1]: 86%; metabolised at 0.5 h, 5 µM [3]: 100%
– | 285 | 28 | 35 | 617 | – | O=C(Nc1ccc(Br)c(-c2ccco2)n1)C1CC1 | –
22 | 702 | 32 | 1360 | – | – | O=C(Nc1ccc(-c2ccncc2)c(-c2ncco2)n1)C1CC1 | metabolised at 0.5 h, 5 µM [19]: 27%; Cmax [13]: 761 ng/mL; Vd [14]: 1.6 L/kg; half-life [15]: 54 min; metabolised at 0.5 h, 5 µM [18]: 14%; AUC(0-inf) [16]: 533 ng·h/mL; clearance [17]: 31.7 mL/min/kg

SMILES | inhibition [2] [%] | Ki [4] [nM] | Ki [5] [nM] | Ki [6] [nM] | Ki [7] [nM] | inhibition [9] [%] | further results
N#Cc1ccc(NC(=O)C2CC2)nc1-c1ccco1 | – | 289 | 41 | 12 | 326 | – | –
O=C(Nc1ccc(C2N=NN=N2)c(-c2ccco2)n1)C1CC1 | 8 | – | – | 1640 | – | 1 | inhibition [10]: 23%
Cc1ccc(-c2nc(NC(=O)C3CC3)ccc2-c2ccncc2)o1 | – | 25 | 5 | 11 | 189 | – | –

Reference: ChEMBL document CHEMBL1154947, “Discovery of N-(5,6-diarylpyridin-2-yl)amide derivatives as potent and selective A(2B) adenosine receptor antagonists” (Bioorg Med Chem Lett, 2010)
